Source: patent publication US20230146795A1, “ENHANCEMENT OF ANTI-TUMOR ACTIVITY OF SHP2 INHIBITOR PYRIMIDINONE IN COMBINATION WITH NOVEL CANCER MEDICINES IN CANCERS” (TAIHO PHARMACEUTICAL CO., LTD., priority 2020, published 2023)

Key:
Assay type in all cases: cell-based
MKN45 = assay: Anti-proliferation assay (CellTiter-Glo 2.0), combination index, MKN45
Method: (§1) Cell lines were obtained from ATCC or Health Science Research Resources Bank.
(§2) Each cell lines were collected by ordinary method, then suspended in indicated medium containing 10% fetal bovine serum in table 3. The number of cells seeded per well was set to 500 cells/20 μL. […] The concentration of each anti-cancer reagents set to 8 concentrations including 0 nM. After adding the medicine to the cells, the cells were further incubated at 37° C. for 3 days under 5% CO2. Cell survival rates were calculated by adding 20 μL of CellTiter-Glo(registered trademark) 2. 0 (Promega) solution to each well, incubating the cells at room temperature for 10 minutes, and then measuring the chemiluminescence intensity of each well using a plate reader (ARVO).
(§3) A combination index (CI) value at each combined concentration of the medicines was determined.

RT4 = assay: Anti-proliferation assay (CellTiter-Glo 2.0), combination index, RT4; details: for Description: combination effect
Method: as §1, §2, §3

NCI-H358 = assay: Anti-proliferation assay (CellTiter-Glo 2.0), combination index, NCI-H358; details: molar ratio 1:3
Method: as §1, §2, §3

[1] = Compound 1 123 + combination drug 3330 nmol/L (1:27)
[2] = Compound 1 370 + combination drug 10000 nmol/L (1:27)
[3] = Compound 1 123 + combination drug 556 nmol/L (1:4.5)
[4] = Compound 1 370 + combination drug 1670 nmol/L (1:4.5)
[5] = Compound 1 1110 + combination drug 5000 nmol/L (1:4.5)
[6] = Compound 1 12.3 nmol/L + Paclitaxel 1.46 nmol/L, molar ratio 1:0.1
[7] = Compound 1 37.0 nmol/L + Paclitaxel 4.39 nmol/L, molar ratio 1:0.1
[8] = Compound 1 111 nmol/L + Paclitaxel 13.2 nmol/L, molar ratio 1:0.1
[9] = Compound 1 333 nmol/L + Paclitaxel 39.5 nmol/L, molar ratio 1:0.1
[10] = Compound 1 1000 nmol/L + Paclitaxel 119 nmol/L, molar ratio 1:0.1
[11] = Compound 1 4.12 nmol/L + Paclitaxel 0.14 nmol/L, molar ratio 1:0.03
[12] = Compound 1 12.3 nmol/L + Paclitaxel 0.41 nmol/L, molar ratio 1:0.03
[13] = Compound 1 37.0 nmol/L + Paclitaxel 1.23 nmol/L, molar ratio 1:0.03
[14] = Compound 1 111 nmol/L + Paclitaxel 3.70 nmol/L, molar ratio 1:0.03
[15] = Compound 1 333 nmol/L + Paclitaxel 11.1 nmol/L, molar ratio 1:0.03
[16] = Compound 1 1000 nmol/L + Paclitaxel 33.3 nmol/L, molar ratio 1:0.03
[17] = Compound 1 37.0 + combination drug 4.12 nmol/L (1:0.1)
[18] = Compound 1 111 + combination drug 12.3 nmol/L (1:0.1)
[19] = Compound 1 333 + combination drug 37.0 nmol/L (1:0.1)
[20] = Compound 1 1110 nmol/L + Vorinostat 3330 nmol/L
[21] = Compound 1 3330 nmol/L + Vorinostat 10000 nmol/L
[22] = Compound 1 1.52 nmol/L + Vorinostat 41.2 nmol/L, molar ratio 1:27
[23] = Compound 1 4.57 nmol/L + Vorinostat 123 nmol/L, molar ratio 1:27
[24] = Compound 1 13.7 nmol/L + Vorinostat 370 nmol/L, molar ratio 1:27
[25] = Compound 1 41.2 nmol/L + Vorinostat 1110 nmol/L, molar ratio 1:27
[26] = Compound 1 123 nmol/L + Vorinostat 3330 nmol/L, molar ratio 1:27
[27] = Compound 1 370 nmol/L + Vorinostat 10000 nmol/L, molar ratio 1:27
[28] = Compound 1 41.2 nmol/L + SN-38 2.06 nmol/L, molar ratio 1:0.05
[29] = Compound 1 123 nmol/L + SN-38 6.17 nmol/L, molar ratio 1:0.05
[30] = Compound 1 370 nmol/L + SN-38 18.5 nmol/L, molar ratio 1:0.05
[31] = Compound 1 1110 nmol/L + SN-38 55.6 nmol/L, molar ratio 1:0.05
[32] = Compound 1 4.57 nmol/L + SN-38 0.69 nmol/L, molar ratio 1:0.1
[33] = Compound 1 13.7 nmol/L + SN-38 2.06 nmol/L, molar ratio 1:0.1
[34] = Compound 1 41.2 nmol/L + SN-38 6.17 nmol/L, molar ratio 1:0.1
[35] = Compound 1 123 nmol/L + SN-38 18.5 nmol/L, molar ratio 1:0.1
[36] = Compound 1 370 nmol/L + SN-38 55.6 nmol/L, molar ratio 1:0.1
[37] = Compound 1 1110 nmol/L + SN-38 167 nmol/L, molar ratio 1:0.1
[38] = Compound 1 3330 nmol/L + SN-38 500 nmol/L, molar ratio 1:0.1

`CS(=O)(=O)CCNCc1ccc(-c2ccc3ncnc(Nc4ccc(OCc5cccc(F)c5)c(Cl)c4)c3c2)o1` [Lapatinib] was tested, and the CI (MKN45; [1]) was 0.965, the Fa (MKN45; [1]) was 0.6048 and the CI (MKN45; [2]) was 0.497. The Fa (MKN45; [2]) was 0.9171 and the “Description (combinatory effect by CI)” value (MKN45; Compound 1:combination drug molar ratio 1:27) was “Synergy (0.3-0.7)”.
`CCOc1cc2ncc(C#N)c(Nc3ccc(OCc4ccccn4)c(Cl)c3)c2cc1NC(=O)/C=C/CN(C)C` [Neratinib] was tested, and the CI (MKN45; [3]) was 0.658, the Fa (MKN45; [3]) was 0.5592 and the CI (MKN45; [4]) was 0.336. The Fa (MKN45; [4]) was 0.8104, the CI (MKN45; [5]) was 0.237 and the Fa (MKN45; [5]) was 0.9240.
`CC(=O)O[C@H]1C(=O)[C@@]2(C)[C@H]([C@H](OC(=O)c3ccccc3)[C@]3(O)C[C@H](OC(=O)[C@H](O)[C@@H](NC(=O)c4ccccc4)c4ccccc4)C(C)=C1C3(C)C)[C@]1(OC(C)=O)CO[C@@H]1C[C@@H]2O` [Paclitaxel] showed a CI (MKN45; [6]) of 0.106, a Fa (MKN45; [6]) of 0.4372 and a CI (MKN45; [7]) of 0.222. It also gave a Fa (MKN45; [7]) of 0.5083, a CI (MKN45; [8]) of 0.307 and a Fa (MKN45; [8]) of 0.6577. The CI (MKN45; [9]) was 0.409, the Fa (MKN45; [9]) was 0.7864 and the CI (MKN45; [10]) was 0.957. It also gave a Fa (MKN45; [10]) of 0.8179, a CI (RT4; [11]) of 0.690 and a Fa (RT4; [11]) of 0.1066. The CI (RT4; [12]) was 0.828, the Fa (RT4; [12]) was 0.1742 and the CI (RT4; [13]) was 0.386. For the same compound, the Fa (RT4; [13]) was 0.4157, the CI (RT4; [14]) was 0.366 and the Fa (RT4; [14]) was 0.6114. It also gave a CI (RT4; [15]) of 0.371, a Fa (RT4; [15]) of 0.7739 and a CI (RT4; [16]) of 0.681. The Fa (RT4; [16]) was 0.8306 and the Description (RT4; Compound 1 + Paclitaxel, molar ratio 1:0.03) was “Synergy (0.3-0.7)”.
For `CC(=O)Nc1cccc(-n2c(=O)n(C3CC3)c(=O)c3c(Nc4ccc(I)cc4F)n(C)c(=O)c(C)c32)c1` [Trametinib], the CI (MKN45; [17]) was 0.358, the Fa (MKN45; [17]) was 0.4047 and the CI (MKN45; [18]) was 0.389. For the same compound, the Fa (MKN45; [18]) was 0.6614, the CI (MKN45; [19]) was 0.693 and the Fa (MKN45; [19]) was 0.7703. For the same compound, the “Description (combinatory effect by CI)” value (MKN45; Compound 1:combination drug molar ratio 1:0.1) was “Synergy (0.3-0.7)”.
Work on `O=C(CCCCCCC(=O)Nc1ccccc1)NO` [Vorinostat] yielded a CI (NCI-H358; [20]) of 0.642, a Fa (NCI-H358; [20]) of 0.7678 and a CI (NCI-H358; [21]) of 0.464. For the same compound, the Fa (NCI-H358; [21]) was 0.9628, the Description (NCI-H358; combination effect, Compound 1 + Vorinostat) was “Synergy (0.3-0.7)” and the CI (RT4; [22]) was 0.581. The Fa (RT4; [22]) was 0.0392, the CI (RT4; [23]) was 0.388 and the Fa (RT4; [23]) was 0.1081. It also gave a CI (RT4; [24]) of 0.647, a Fa (RT4; [24]) of 0.1594 and a CI (RT4; [25]) of 0.394. It also gave a Fa (RT4; [25]) of 0.4179, a CI (RT4; [26]) of 0.569 and a Fa (RT4; [26]) of 0.5893. The CI (RT4; [27]) was 0.334, the Fa (RT4; [27]) was 0.8967 and the Description (RT4; Compound 1 + Vorinostat, molar ratio 1:27) was “Synergy (0.3-0.7)”.
For SN-38, the CI (MKN45; [28]) was 0.750, the Fa (MKN45; [28]) was 0.3061 and the CI (MKN45; [29]) was 0.390. It also gave a Fa (MKN45; [29]) of 0.6496, a CI (MKN45; [30]) of 0.261 and a Fa (MKN45; [30]) of 0.8647. The CI (MKN45; [31]) was 0.536, the Fa (MKN45; [31]) was 0.8972 and the CI (RT4; [32]) was 0.322. It also gave a Fa (RT4; [32]) of 0.2202, a CI (RT4; [33]) of 0.554 and a Fa (RT4; [33]) of 0.2912. It also gave a CI (RT4; [34]) of 0.621, a Fa (RT4; [34]) of 0.4442 and a CI (RT4; [35]) of 0.472. For the same compound, the Fa (RT4; [35]) was 0.6700, the CI (RT4; [36]) was 0.554 and the Fa (RT4; [36]) was 0.7937. It also gave a CI (RT4; [37]) of 0.310, a Fa (RT4; [37]) of 0.9240 and a CI (RT4; [38]) of 0.064. It also gave a Fa (RT4; [38]) of 0.9872.
